Measurements as given in publication PMC12732972, “Bifunctional BODIPY-Clioquinol Copper Chelator with Multiple Anti-AD Properties” (International Journal of Molecular Sciences, 2025).

Target: T1, beta amyloid (Aβ42) (Homo sapiens, UniProt P05067)
T1 construct: gene APP; synthetic peptide of 42 amino acids β-amyloid Aβ42 (monomers)
Experiment: ITC with Aβ[…] monomers (supported by fluorescence saturation binding with monomers and fibrils)

T1 sequence (P05067 672-713 limits assumed): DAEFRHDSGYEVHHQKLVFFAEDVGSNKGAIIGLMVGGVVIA

- Kd: 4.08 ± 0.2 µM
SMILES: CC1=C(c2nc3ccccc3s2)C(C)=[N+]2C1=C(c1ccc(OCC(=O)NCCCOc3c(I)cc(Cl)c4cccnc34)cc1)c1c(C)cc(C)n1[B-]2(F)F [BDP-CLQ, 2-(4-(2-(benzo[d]thiazol-2-yl)-5,5-difluoro-1,3,7,9-tetramethyl-5H-5λ^4,6λ^4-dipyrrolo [1,2-c:2′,1′-f][1,3,2]diazaborinin-10-yl)phenoxy)-N-(3-((5-chloro-7-iodoquinolin-8-yl)-oxy)propyl)acetamide]
